Positions count from the first letter of the chain named.
Legend:
[1] = tested on: Receptor-type tyrosine-protein kinase FLT3 (Homo sapiens), P36888 [UNDEFINED MUTATION]; experiment: (§1) Selectivity interaction (KinomeScan (DiscoverX)) EUB0000092b FLT3; details: at 10 µM
[2] = target: Receptor-type tyrosine-protein kinase FLT3 (Homo sapiens) (UniProt P36888); experiment: as §1; details: at 10 µM
[3] = tested on: T1, Receptor-type tyrosine-protein kinase FLT3 (Homo sapiens), P36888 [K663Q]; experiment: as §1; details: at 10 µM
T1 sequence (whole entry): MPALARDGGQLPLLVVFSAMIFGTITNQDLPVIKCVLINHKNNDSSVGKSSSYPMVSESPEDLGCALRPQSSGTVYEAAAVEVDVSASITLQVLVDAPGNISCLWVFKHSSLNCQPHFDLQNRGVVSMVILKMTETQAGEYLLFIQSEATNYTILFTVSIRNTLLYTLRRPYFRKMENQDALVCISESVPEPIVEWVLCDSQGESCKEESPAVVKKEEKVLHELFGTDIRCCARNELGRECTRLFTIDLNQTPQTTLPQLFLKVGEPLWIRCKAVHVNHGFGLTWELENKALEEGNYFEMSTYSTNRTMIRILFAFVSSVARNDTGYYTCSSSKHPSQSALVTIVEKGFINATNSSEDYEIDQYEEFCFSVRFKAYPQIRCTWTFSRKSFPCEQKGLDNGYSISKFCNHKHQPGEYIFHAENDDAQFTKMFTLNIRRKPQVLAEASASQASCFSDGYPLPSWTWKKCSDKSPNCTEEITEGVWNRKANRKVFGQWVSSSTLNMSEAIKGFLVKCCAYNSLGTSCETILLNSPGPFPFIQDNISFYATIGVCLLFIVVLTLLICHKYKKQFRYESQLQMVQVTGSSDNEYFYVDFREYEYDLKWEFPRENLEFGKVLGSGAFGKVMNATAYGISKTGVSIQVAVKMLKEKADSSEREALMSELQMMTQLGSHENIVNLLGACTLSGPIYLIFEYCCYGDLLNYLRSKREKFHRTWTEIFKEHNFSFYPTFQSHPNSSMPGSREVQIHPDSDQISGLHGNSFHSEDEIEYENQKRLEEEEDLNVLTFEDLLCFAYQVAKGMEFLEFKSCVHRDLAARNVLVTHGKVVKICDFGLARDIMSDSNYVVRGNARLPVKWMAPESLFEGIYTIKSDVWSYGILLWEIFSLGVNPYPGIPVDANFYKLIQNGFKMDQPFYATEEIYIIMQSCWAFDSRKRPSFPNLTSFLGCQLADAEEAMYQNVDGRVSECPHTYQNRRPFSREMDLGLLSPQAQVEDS

[4] = tested on: T2, Receptor-type tyrosine-protein kinase FLT3 (Homo sapiens), P36888 [N841I]; experiment: as §1; details: at 10 µM
T2 sequence (whole entry): T1 sequence (whole entry) with Q663K, N841I

[5] = target: T3, Ephrin type-B receptor 3 (Homo sapiens) (UniProt P54753); experiment: Selectivity interaction (KinomeScan (DiscoverX)) EUB0001079a EPHB3; details: at 1 µM
T3 sequence (whole entry): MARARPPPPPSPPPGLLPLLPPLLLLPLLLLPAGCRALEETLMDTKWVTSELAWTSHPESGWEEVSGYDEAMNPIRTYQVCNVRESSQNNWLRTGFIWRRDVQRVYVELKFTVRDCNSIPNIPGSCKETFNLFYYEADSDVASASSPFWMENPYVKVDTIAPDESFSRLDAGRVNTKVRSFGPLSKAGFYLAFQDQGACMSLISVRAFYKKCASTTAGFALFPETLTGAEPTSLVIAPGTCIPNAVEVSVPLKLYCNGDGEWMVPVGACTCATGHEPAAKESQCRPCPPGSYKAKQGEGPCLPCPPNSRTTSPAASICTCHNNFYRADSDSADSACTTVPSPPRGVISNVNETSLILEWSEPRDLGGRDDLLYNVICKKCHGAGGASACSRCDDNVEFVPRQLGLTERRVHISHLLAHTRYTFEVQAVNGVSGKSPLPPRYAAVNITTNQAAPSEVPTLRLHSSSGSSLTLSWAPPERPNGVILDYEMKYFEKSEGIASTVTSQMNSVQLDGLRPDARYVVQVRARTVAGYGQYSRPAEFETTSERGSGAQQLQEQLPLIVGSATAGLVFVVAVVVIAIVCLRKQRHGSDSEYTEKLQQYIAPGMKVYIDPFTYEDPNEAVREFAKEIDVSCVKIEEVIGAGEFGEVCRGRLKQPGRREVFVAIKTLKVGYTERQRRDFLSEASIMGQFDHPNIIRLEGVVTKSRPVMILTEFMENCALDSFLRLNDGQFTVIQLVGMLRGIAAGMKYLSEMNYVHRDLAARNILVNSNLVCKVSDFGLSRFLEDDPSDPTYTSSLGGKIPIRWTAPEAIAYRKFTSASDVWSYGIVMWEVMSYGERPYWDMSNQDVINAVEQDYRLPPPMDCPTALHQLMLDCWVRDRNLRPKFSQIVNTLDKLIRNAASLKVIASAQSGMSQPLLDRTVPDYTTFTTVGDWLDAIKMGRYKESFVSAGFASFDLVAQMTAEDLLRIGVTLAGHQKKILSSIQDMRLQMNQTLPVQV

| SMILES | % of control [1] [%] | % of control [2] [%] | % of control [3] [%] | % of control [4] [%] | % of control [5] [%] |
| --- | --- | --- | --- | --- | --- |
| CCC(=O)N1CCN(c2ccc(-n3c(=O)ccc4cnc5ccc(-c6cnc7ccccc7c6)cc5c43)cc2C(F)(F)F)CC1 | 29 | 16 | 23 | 8.8 | – |
| Nc1cnc(N2CCc3cc(S(=O)(=O)Nc4c(F)cc(Cl)cc4F)cc(N4CCCC4=O)c32)nc1 [TP-020n] | – | – | – | – | 100 |

Source: ChEMBL document CHEMBL5465560, “Selectivity Literature for EUbOPEN Chemogenomic Library” (2024)
